Laboratory results as given in PubChem BioAssay AID488889 (Sanford-Burnham Center for Chemical Genomics, 2010).
pIC50: −log10 of the molar value.

Target: Tyrosine-protein phosphatase non-receptor type 7 (Homo sapiens) (UniProt P35236)
Test: inhibition of hematopoietic tyrosine phosphatase HePTP – biochemical, set 3, SAR follow-up (AID 488889)
Settings: recombinant HePTP phosphatase activity assay

Chain of Tyrosine-protein phosphatase non-receptor type 7 (Homo sapiens) (P35236 whole entry, looked up): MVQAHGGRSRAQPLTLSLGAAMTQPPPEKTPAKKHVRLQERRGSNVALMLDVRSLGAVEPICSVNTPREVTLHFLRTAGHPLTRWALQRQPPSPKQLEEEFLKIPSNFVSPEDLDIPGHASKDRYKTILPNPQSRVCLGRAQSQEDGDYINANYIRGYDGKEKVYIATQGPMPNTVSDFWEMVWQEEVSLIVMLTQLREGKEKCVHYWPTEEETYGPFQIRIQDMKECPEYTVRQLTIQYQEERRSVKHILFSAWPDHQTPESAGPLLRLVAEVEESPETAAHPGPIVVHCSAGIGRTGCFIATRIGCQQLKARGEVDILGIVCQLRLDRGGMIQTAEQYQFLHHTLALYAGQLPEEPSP

| pIC50 | Compound |
| --- | --- |
| > 6.71 | O=C(O)COc1ccc(/C=N/NC(=O)c2ccc(-c3csc(Nc4ccc(Cl)cc4)n3)cc2)cc1 |
| 4.99 | CCOC(=O)COc1ccc(/C=N/NC(=O)c2ccc(-c3csc(Nc4ccc(Cl)cc4)n3)cc2)cc1 |
